Residue numbers refer to the chain shown, from its start. “And” between values parts separate entries of the source, which are not always exact repeats. Equal values may be shown once.
What was measured:
hP2X3 WT = target: T1, hP2X3 WT (Homo sapiens, UniProt P56373); test: ATP dose response (EC50), TEVC in oocytes; format: cell-based
T1 construct: expressed in transfected cells
T1 sequence (P56373 1-397): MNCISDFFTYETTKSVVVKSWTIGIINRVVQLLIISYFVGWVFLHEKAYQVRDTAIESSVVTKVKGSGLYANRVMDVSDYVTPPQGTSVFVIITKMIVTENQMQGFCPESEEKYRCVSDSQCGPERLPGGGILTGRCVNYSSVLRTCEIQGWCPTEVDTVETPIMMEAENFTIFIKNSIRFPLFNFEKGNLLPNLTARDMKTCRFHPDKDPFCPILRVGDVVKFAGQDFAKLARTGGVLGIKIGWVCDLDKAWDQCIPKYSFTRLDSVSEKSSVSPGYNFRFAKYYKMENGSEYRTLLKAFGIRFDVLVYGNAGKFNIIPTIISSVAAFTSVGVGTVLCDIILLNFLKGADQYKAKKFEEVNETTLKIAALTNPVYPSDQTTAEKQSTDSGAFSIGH

P2X1 = tested on: P2X1; design: method as in doi: 10.1111/bph.15299; conditions: reviewer comment, ref doi: 10.1111/bph.15299, read-out: EC50 of ATP; cited from earlier work
thrombosis = conditions: in vivo; cited from earlier work
platelets = conditions: ex vivo; cited from earlier work
hP2X1 N184A = target: T2, hP2X1 N184A (Homo sapiens, UniProt P51575, N184A); test: NF449 inhibition dose response (IC50), TEVC in oocytes; format: cell-based; conditions: for Normalized Current: hP2X1 N184A
T2 construct: hP2X1 mRNA that was made from linearized full-length wild-type or mutant pcDNA 3.1x; expressed in transfected cells; host or cells: Xenopus laevis oocytes (mRNA injection)
T2 sequence (P51575 1-399 N184A): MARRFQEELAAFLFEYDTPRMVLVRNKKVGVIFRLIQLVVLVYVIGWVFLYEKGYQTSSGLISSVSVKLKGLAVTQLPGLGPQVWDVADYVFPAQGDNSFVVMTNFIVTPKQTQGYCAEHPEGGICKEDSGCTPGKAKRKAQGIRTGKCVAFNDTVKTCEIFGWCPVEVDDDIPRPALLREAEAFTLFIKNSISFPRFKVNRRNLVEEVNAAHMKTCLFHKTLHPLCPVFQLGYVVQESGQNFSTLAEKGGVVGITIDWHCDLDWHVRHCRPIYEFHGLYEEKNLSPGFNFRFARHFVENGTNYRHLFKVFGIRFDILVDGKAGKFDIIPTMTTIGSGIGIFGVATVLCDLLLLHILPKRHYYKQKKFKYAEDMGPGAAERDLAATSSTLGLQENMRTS
Procedure: (§1) Oocytes were purchased defolliculated from Ecocyte Bioscience in Barth’s Solution (88 mM NaCl, 1 mM KCl, 0.82 mM MgSO4, 0.33 mM Ca(NO3)2, 0.41 mM CaCl2, 2.4 mM NaHCO3, 5 mM Tris-HCl) supplemented with penicillin (100 U/mL) and streptomycin (100 µg/mL). Xenopus laevis oocytes were then injected with 50 nL of 100 ng/μL hP2X1 mRNA that was made from linearized full-length wild-type or mutant pcDNA 3.1x according to the protocol provided in the mMessage mMachine kit (Invitrogen). Injected oocytes were allowed to express for ~20 hours at 18 °C before recording was performed.
(§2) Data acquisition was performed using the Oocyte Clamp OC-725C amplifier and pClamp 8.2 software. Buffers were applied using a gravity fed RSC-200 Rapid Solution Changer that flows at ~5 mL/min. All experiments use Sutter filamented glass 10 cm in length with an inner diameter of 0.69 mm and an outer diameter of 1.2 mm to impale oocytes and clamp the holding voltage at −60 mV. Experiments were recorded in buffer containing 10 mM HEPES (pH 7.4), 140 mM NaCl, 5 mM KCl, 2 mM CaCl2, 2 mM MgCl2, and 10 mM glucose.
(§3) To test a dilution series of an antagonist at discrete concentrations, 10 µM ATP (2 mM ATP for K309A only) was first applied to evoke an initial maximum current. The oocyte was then washed with buffer for one minute, followed by one minute application of an antagonist test-concentration, and concluded by co-application of the same test concentration with 10 µM ATP (2 mM ATP for K309A). The antagonized signal was then normalized against the initial ATP excitatory signal. Each test concentration was performed in triplicate across different oocytes. The data was then fit to a nonlinear regression named “[inhibitor] vs. response – Variable slope (four parameters)” in Prism 9 to produce a sigmoidal curve and afford an IC50 value. Each singular condition was used to generate an average which is reported plus or minus its standard deviation between three discrete trials.

hP2X1 WT = target: T3, hP2X1 WT (Homo sapiens, UniProt P51575); test: as above; format: cell-based
T3 construct: hP2X1 mRNA that was made from linearized full-length wild-type or mutant pcDNA 3.1x; expressed in transfected cells; host or cells: Xenopus laevis oocytes (mRNA injection)
T3 sequence (P51575 1-399): T2 sequence (P51575 1-399 N184A) with A184N
Procedure: as §1, §2, §3

For `Nc1ncnc2c1ncn2[C@@H]1O[C@H](COP(=O)(O)OP(=O)(O)OP(=O)(O)O)[C@@H](O)[C@H]1O` [ATP], the EC50 (hP2X3 WT; TEVC) was 800 ± 100 nM, the “Normalized Current” value (hP2X3 WT; [ATP] 1.000E-04 M) was 1.024 and 0.937 and 0.934 and the “Normalized Current” value (hP2X3 WT; [ATP] 1.563E-06 M) was 0.9021 and 0.8096 and 0.6657. The “Normalized Current” value (hP2X3 WT; [ATP] 2.500E-05 M) was 1.229 and 0.9489 and 0.8224, the “Normalized Current” value (hP2X3 WT; [ATP] 3.906E-07 M) was 0.1693 and 0.1661 and 0.1374 and the “Normalized Current” value (hP2X3 WT; [ATP] 6.250E-06 M) was 0.9276 and 0.9021 and 0.8266. For the same molecule, the “Normalized Current” value (hP2X3 WT; [ATP] 9.766E-08 M) was 0.0748 and 0.0739 and 0.04276, the “Hill slope of activation by ATP” value (hP2X3 WT; mean ± SD of three EC50 traces) was 2.5 ± 0.6 and the EC50 (P2X1) was 500 to 1000 nM.

In the case of `O=C(Nc1cc(C(=O)Nc2ccc(S(=O)(=O)O)cc2S(=O)(=O)O)cc(C(=O)Nc2ccc(S(=O)(=O)O)cc2S(=O)(=O)O)c1)Nc1cc(C(=O)Nc2ccc(S(=O)(=O)O)cc2S(=O)(=O)O)cc(C(=O)Nc2ccc(S(=O)(=O)O)cc2S(=O)(=O)O)c1` [NF449, 4,4’,4”,4’’’-(carbonylbis(imino-5,1,3-benzenetriylbis(carbonylimino)))tetrakis-benzene-1,3-disulfonic acid], the effect on thrombosis (thrombosis) is given as “inhibitory effect”, the “effect on platelet activation” value (platelets) is given as “inhibitory effect” and the “reduction in inhibitory potency of NF449” value (hP2X1 N184A; hP2X1 N184A vs wild-type) is given as ~ 6 fold. The “Normalized Current” value (hP2X1 N184A; [NF449] 1.280E-11 M) was 1.058 and 0.9967 and 0.9456, the “Normalized Current” value (hP2X1 N184A; [NF449] 1.600E-09 M) was 0.7543 and 0.7296 and the “Normalized Current” value (hP2X1 N184A; [NF449] 3.200E-10 M) was 0.9687 and 0.7936 and 0.7686. For the same molecule, the “Normalized Current” value (hP2X1 N184A; [NF449] 4.000E-08 M) was 0.04235 and 0.03835 and 0.03234, the “Normalized Current” value (hP2X1 N184A; [NF449] 6.400E-11 M) was 0.9352 and 0.9156 and 0.8436 and the “Normalized Current” value (hP2X1 N184A; [NF449] 8.000E-09 M) was 0.4048 and 0.3885 and 0.3164. For the same molecule, the “Normalized Current” value (hP2X1 WT; [NF449] 1.600E-10 M) was 0.9675 and 0.945 and 0.9562, the “Normalized Current” value (hP2X1 WT; [NF449] 3.200E-11 M) was 1.007 and 0.9213 and 1.004 and the “Normalized Current” value (hP2X1 WT; [NF449] 6.400E-12 M) was 1.049 and 0.9637 and 0.9878. For the same molecule, the “Normalized Current” value (hP2X1 WT; [NF449] 8.000E-10 M) was 0.5214 and 0.4548 and 0.5008.

— PMC11448502, “Cryo-EM structures of the human P2X1 receptor reveal subtype-specific architecture and antagonism by supramolecular ligand-binding” (Nature Communications, 2024)
